The text below walks through data of patent US10111902B2, “Polymers for reversing heparin-based anticoagulation” (University of British Columbia, priority 2011, dated 2018).

Data set [1] has as its system blood. Put plainly: Blood compatibility at 1 mg/ml. To be noted: footnote [3] to protamine: showed complement activation, platelet activation, behaved like an anticoagulant, massive hemolysis.
For data set [2], the system named is ctDNA. In words: Binding affinity of polymers for ctDNA. To be noted: buffered water (pH 7.2), 50 mM NaCl, 25° C.

With `NCCCNCCCCNCCCN` [Tetramine (spermine), spermine], the “Blood compatibility at 1 mg/ml” value in data set [1] is given as “poor”. Further, in data set [2], the “C50 (nM) [1]” value is reported as 2788 nM.
